Data taken from patent publication US8377918B2 (ACC Therapeutics Inc, priority 2005, dated 2013).

Key:
PC-3 cells = assay: MTT cell proliferation assay, PC-3 prostate cancer cells; assay type: cell-based, human; conditions: 24 h
Procedure: FIG. 8. […] Prostate cancer cells PC-3 and DU145 were seeded in 96-well plates at 1×10^4 cells/well. […] The cell proliferation was assayed by culturing the cells for 24 h, then adding 10 μl of MTT reagent with incubation for 2 h. The reaction was stopped by adding 100 μl of solubilization solution. The relative cell proliferation was obtained by the reading at 590 nm which was recorded in a spectrophotometer, and normalized to the value of control.
FIG. 9. […] A, Cisplatin-resistant ovarian cancer cell line A2780/CP70, and B, prostate cancer cells PC-3 were seeded in 96-well plates at 1×10^4 cells/well and incubated overnight.
FIG. 17. […] A, the prostate cancer cells PC-3 and DU145; B, colon cancer cells Colo-205 and HCT-116; C, lung cancer cells A549 and H460 cells were plated at 1×10^4 cells per well in a 96 well plate in 100 μl of media.
FIG. 18. […] A and B, the prostate cancer cells PC-3 and DU145; C, colon cancer cells Colo-205 and HCT-116; D, lung cancer cells A549 and H460 cells were plated at 1×10^4 cells per well in a 96 well plate in 100 μl of media. […] The cell proliferation was analyzed by MTT assay.
FIG. 19. […] A, prostate cancer cells PC-3; and B, DU145 cells were plated at 1×10^4 cells per well in a 96 well plate in 100 μl of media. […] Cell proliferation was examined by MTT assay.
FIG. 23. […] Cell proliferation was examined by MTT assay.

H460 cells = assay: MTT cell proliferation assay, H460 lung cancer cells; assay type: cell-based, human; conditions: H460, apigenin alone, 24 h
Procedure: FIG. 17. […] A, the prostate cancer cells PC-3 and DU145; B, colon cancer cells Colo-205 and HCT-116; C, lung cancer cells A549 and H460 cells were plated at 1×10^4 cells per well in a 96 well plate in 100 μl of media. […] FIG. 18. […] A and B, the prostate cancer cells PC-3 and DU145; C, colon cancer cells Colo-205 and HCT-116; D, lung cancer cells A549 and H460 cells were plated at 1×10^4 cells per well in a 96 well plate in 100 μl of media. […] The cell proliferation was analyzed by MTT assay. […] FIG. 22. […] A, colon cancer cells Colo-205 and HCT-116; B, lung cancer cells A549 and H460 cells were plated at 1×10^4 cells per well in a 96 well plate the day before the treatment. […] Cell proliferation was examined by MTT assay. […] FIG. 25.

normal human cells = assay: Apoptosis of normal human cells (GM847 fibroblasts); assay type: cell-based; conditions: at up to 40 μM apigenin
Procedure: FIG. 1. […] (A) A2780/CP70 cells and human fibroblast GM847 cells were seeded in 96-well plate at 4×10^3 cells per well and incubated overnight. […] The cells were incubated for 24 h. Cell proliferation was determined by MTT reduction. […] Cells were trypsinized, harvested, washed once with PBS buffer, and stained using the Annexin-V-Folus Kit as per the manufacture's instructions. […] After incubation, all cells were collected and total DNA was isolated. Eight (8) μg of DNA was resolved on 1.8% agarose gel. […] (D) Treatment of GM847 cells was the same as that of 5D. […] Cleavage of caspase-3 and PARP was detected by western-blot.

[1] = test system: tumors induced by A2780/CP70 cells; assay: Tumor weight of A2780/CP70 tumors on CAM; assay type: in vivo, chicken embryo; conditions: 10 μM apigenin or 2.5 μM CDDP+10 μM apigenin, 10 days
Procedure: (§1) FIG. 4. […] The A2780/CP70 cells were seeded into 100 mm dish and grown to 90-100% confluence. […] In 10 days, the tumors were harvested and weighed. The blood vessel numbers of the tumor were counted under×100. At least five areas were determined. The data are mean±SD from two experiments (n=8). A, representative tumor morphology; B, tumor weight; C, relative numbers of blood vessels.

[2] = test system: tumors induced by A2780/CP70 cells; assay: Blood vessel numbers of A2780/CP70 tumors on CAM; assay type: in vivo, chicken embryo; conditions: 10 μM apigenin or 2.5 μM CDDP+10 μM apigenin, 10 days
Procedure: as §1

A2780/CP70 tumors = assay: New blood vessel formation in tumors on CAM; assay type: in vivo, chicken embryo; conditions: 15 μM apigenin, 100 h
Procedure: FIG. 7. […] A2780/CP70 ovarian cancer cells were mixed with Matrigel and implanted onto the chorioallantoic membrane (CAM) of a 9-day old embryo. In 100 h, the tumor was cut off and the newly-formed blood vessels on the back of the tumor were determined.

[3] = test system: VEGF expression in OVCAR-3 cells; assay: VEGF ELISA of supernatants, OVCAR-3; assay type: cell-based, human; conditions: OVCAR-3, 15 h
Procedure: (§2) FIG. 6. […] OVCAR-3 and A2780/CP70 cells were plated in 12-well plates and cultured to 90% confluence. […] The concentrations of VEGF in the supernatants were determined by ELISA method as described in Materials and Methods. The data are mean±SE from three independent experiments and each experiment was performed with triplicate cultures.

[4] = test system: VEGF expression in A2780/CP70 cells; assay: VEGF ELISA of supernatants, A2780/CP70; assay type: cell-based, human; conditions: A2780/CP70, 15 h
Procedure: as §2

lung cancer cell A549 = assay: A549 cell counting proliferation; assay type: cell-based, human; conditions: A549, 10 and 20 μM, 24 and 48 h
Procedure: FIG. 12. […] A, A549 cells were seeded at 5 ×10^5 cells/well on a 24-well plate, and cultured overnight the day before the treatment. […] After 24 and 48 h, aliquots of cells were counted in triplicate using a hemocytometer to obtain cell number and proliferation rate.

[5] = test system: VEGF transcriptional activity in A549 cells; assay: VEGF reporter luciferase assay in A549; assay type: cell-based, human; conditions: A549, 5, 10, and 20 μM, 24 h
Procedure: FIG. 13. […] A549 cells were seeded on a six-well plate. When they reached 60 to 70% confluence, the cells were transfected using Lipofectamine reagent. A, A549 cells were cotransfected with 1 μg of pGL-StuI VEGF reporter and 0.3 μg of β-gal plasmid as described. […] Cells were then lysed and the supernatants were used to assay Luc and β-gal activities. The relative luciferase activities in the cell extracts were assayed by the ratio of Luc/β-gal activity and normalized to the value in the solvent DMSO control. B, cells were cotransfected with 1 μg of pMAP11wt VEGF reporter and 0.3 μg of β-gal plasmid as described. Cells were treated with different doses of apigenin as described above. C, the cells were transfected with pMAP11mut VEGF reporter (with 3-bp substitution of pMAP11wt), and treated as above “B”.

Structure (SMILES): O=c1cc(-c2ccc(O)cc2)oc2cc(O)cc(O)c12 [apigenin, 4′,5,7,-trihydroxyflavone]
- effect on sensitivity to etoposide treatment (PC-3 cells; PC-3, 15 μM apigenin): increased the sensitivity
- effect on cell proliferation (PC-3 cells; PC-3, apigenin alone): inhibited
- effect on cell proliferation (H460 cells): inhibited the proliferation
- induction of apoptosis of normal human cells (normal human cells): did not induce apoptosis
- inhibition of tumor growth [1]: 40%
- inhibition of blood vessel formation (angiogenesis) [2]: 35%
- effect on new blood vessel formation (angiogenesis) in tumors (A2780/CP70 tumors): inhibited new blood vessel formation
- effect on expression of VEGF [3]: inhibited the expression of VEGF
- effect on expression of VEGF [4]: inhibited the expression of VEGF
- effect on lung cancer cell proliferation (lung cancer cell A549): significantly inhibits
- effect on VEGF transcriptional activation [5]: dramatically suppresses
